Source: patent publication US8222218B2, “Cyclopropanated carbohydrates” (Seton Hall University, priority 2008, dated 2012)
Like-named read-outs stand apart in the source and are kept apart here.

Assays:
MES-induced seizures = test: Maximal Electroshock Seizure (MES) test, rats; format: in vivo; conditions: rat, p.o., 30 mg/kg
Method: (§1) Toxicity was measured using the minimal motor impairment test described below.
(§2) The MES test is a model for generalized tonic-clonic seizures. The seizures are highly reproducible and electrophysiologically consistent with human seizures. The test provides information about a compound's ability to prevent the spread of seizure when all neuronal circuits of the brain are maximally active. 60 Hz of alternating current (50 mA in mice, 150 mA in rats) is applied for 2 seconds via corneal electrodes that have been treated with an electrolyte solution containing an anesthetic (0.5% tetracaine HCl). Mice are tested at a variety of intervals after an i.p. injection of […] solution of the test compound (commonly in a 0.5% solution of methylcellulose) at 30, 100, and 300 mg/kg doses. Rats are examined after a 30 mg/kg (per os, p.o.) dose that is applied in a volume of 0.04 mL/g. An animal is considered “protected” from MES-induced seizures upon removal of the hind limb extensor component of the seizure.
(§3) Male and female albino CF1 mice (18-25 g, Charles River, Portage, Mich.) and male albino Sprague-Dawley rats (275-300 g, kindling test; 100-150 g all other tests; Charles River, Raleigh, N.C.) were used as experimental animals.

[1] = system: metrazole-induced clonic seizures; test: Subcutaneous Metrazole Seizure Threshold Test (scMET), mice; format: in vivo; conditions: Mus musculus, sc, mice
Summary of the method: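 CF1 mice dosed with test compound at 30, 100 and 300 mg/kg; Sprague-Dawley rats at 50 mg/kg p.o. At compound TPE, metrazole at CD97 (85 mg/kg in mice) injected s.c. in the neck. Animals observed 30 min; endpoint is a 3-5 s clonic spasm episode.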

[2] = system: metrazole-induced clonic seizures; test: Subcutaneous Metrazole Seizure Threshold Test (scMET), rats; format: in vivo; conditions: rat, row printed as 300, 0.4 h
[3] = Acute toxicity, minimal motor impairment (ataxia), rats; format: in vivo; conditions: rat, 30 mg/kg
Method: as §1
Animals are monitored for overt signs of impaired neurological or muscular function to assess a compound's toxicity. In mice, the rotorod procedure is used to disclose minimal muscular or neurological impairment. When a mouse is placed on a rotating rod (6 rpm), the animal can maintain its equilibrium for long periods of time. The animal is considered toxic if it falls off the rotating rod three times during a 1 minute period. In rats, minimal motor deficit is indicated by ataxia, which is manifested by an abnormal, uncoordinated gait. Rats used for toxicity evaluation are examined before the test drug is given as individual animals may have peculiarities in gait, equilibrium, and pacing response which must be distinguished from potential effects of the test substance.
as §3

[4] = molecular target: T1, cloned, human D1 receptor (Homo sapiens, UniProt P21728); test: Radioligand competition binding assay, [3H]SCH23390
T1 construct: expressed in transfected cells
T1 sequence (P21728 whole entry): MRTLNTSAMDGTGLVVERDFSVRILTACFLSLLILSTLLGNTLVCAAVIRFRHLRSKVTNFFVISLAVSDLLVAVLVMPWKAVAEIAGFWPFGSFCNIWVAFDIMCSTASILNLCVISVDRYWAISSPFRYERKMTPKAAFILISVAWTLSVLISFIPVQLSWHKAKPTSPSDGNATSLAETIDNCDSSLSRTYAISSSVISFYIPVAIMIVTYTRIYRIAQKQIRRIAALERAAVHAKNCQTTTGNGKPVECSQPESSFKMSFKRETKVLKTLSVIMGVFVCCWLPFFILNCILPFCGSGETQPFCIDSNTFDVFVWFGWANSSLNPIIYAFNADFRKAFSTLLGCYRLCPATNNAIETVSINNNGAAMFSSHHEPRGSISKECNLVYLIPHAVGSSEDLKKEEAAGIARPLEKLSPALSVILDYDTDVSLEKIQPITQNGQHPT
Source text: Receptor binding profiles were provided by the National Institute of Mental Health's Psychoactive Drug Screening Program, Contract # N01 MH32004 (NIMH PDSP) The NIMH PDSP is directed by Bryan L. Roth M. D., Ph.D. at the University of North Carolina at Chapel Hill and Project Officer Jamie Driscol at NIMH, Bethesda Md., USA. Protocols for receptor-based assays by the PDSP may be found on the website: http://pdsp.med.unc.edu/pdspw/binding.php and http://pdsp.med.unc.edu/pdspw/function.php (Apr. 30, 2008).
Radioligand competition binding assays were performed as previously described (Rothman, R. B., Baumann, M. H., Savage, J. E., Rauser, L., McBride, Hufeisen, S. J., Roth B. L. Circulation (2000) 102:2836-2841) for Compounds 7 and 16. Briefly, test compounds were dissolved to 10 mM in 100% DMSO, then diluted to the desired concentrations (spanning seven orders of magnitude) in Dopamine Binding Buffer (50 mM NaCl, 50 mM HEPES, 5 mM MgCl2, 0.5 mM EDTA, pH 7.4). Diluted test and reference compounds were added to wells containing radioligand ([^3H]SCH23390, 0.3 nM final concentration) and buffer, then membrane fractions from cells stably expressing cloned, human D1 or D5 receptors were added and binding was allowed to equilibrate at room temperature for 1.5 hours. At equilibrium, reactions were filtered (using a FilterMate 96-well harvester, PerkinElmer) onto GF-A glass fiber filters (Wallac) and allowed to dry. Meltilex scintillant (Wallac) was melted onto the dry filters, and then allowed to cool. Filters were then sealed in plastic bags and counted on a Wallac TriLux microbeta counter.
Raw data (dpm) representing total radioligand binding (i.e., specific+non-specific binding) were plotted as a function of the logarithm of the molar concentration of the competitor (i.e., test or reference compound). Non-linear regression of the normalized (i.e., percent radioligand binding compared to that observed in the absence of test or reference compound) raw data is performed in Prism 4.0 (GraphPad Software) using the built-in three parameter logistic model describing ligand competition binding to radioligand-labeled sites: y=bottom+[(top−bottom)/(1+10^x−logIC50)] where bottom equals the residual radioligand binding measured in the presence of 10 μM reference compound (i.e., non-specific binding) and top equals the total radioligand binding observed in the absence of competitor. The log IC50 (i.e., the log of the ligand concentration that reduces radioligand binding by 50%) is thus estimated from the data and used to obtain the Ki by applying the Cheng-Prusoff approximation: Ki=IC50/(1+[ligand]/KD) where [ligand] equals the assay radioligand concentration and KD equals the affinity constant of the radioligand for the target receptor.

seizures = test: In vivo anticonvulsant screening (MES, scMET, minimal clonic seizure), summary in words; set-up: species or system rat, mouse; conditions: summary of Table 2
Method: as §1, §2
The subcutaneous injection of metrazole, which is a convulsant, produces clonic seizures in laboratory animals. The scMET test is designed to identify compounds that raise the seizure threshold of an animal. Mice are pretreated with test compound at 30, 100, and 300 mg/kg doses in a similar manner to the MES test. Rats are treated with a 50 mg/kg dose (p.o.). At the previously determined TPE of the test compound, the dose of metrazole that will induce convulsions in 97% of animals (CD97: 85 mg/kg mice) is injected into the loose fold of the skin in the midline of the neck. The animals are placed in isolation cages to minimize stress and observed for the next 30 minutes for the presence or absence of seizures. An episode of clonic spasms (approximately 3-5 seconds) of the fore and/or hindlimbs, jaws or vibrissae is taken as the endpoint.
The minimal clonic seizure (6 Hz) test, like the MES test, is used to assess a compound's ability to protect against electrically-induced seizures. The minimal clonic (6 Hz) seizure test uses a lower frequency (6 Hz) and a longer duration of stimulation (3 seconds) than the MES test. Test compounds are pre-administered to mice via i.p. injection. At varying times, individual mice (four per time point) are challenged with sufficient current via corneal electrodes to elicit a psychomotor seizure in 97% of animals (32 mA for 3 second). Untreated mice will display seizure characterized by a minimal clonic phase followed by stereotyped, automatistic behaviors described originally as being similar to the aura of human patients with partial seizures. Animals not displaying this behavior are considered to be protected.

Structure (SMILES): CCOC(=O)C1[C@@H]2[C@@H](O)[C@@H]3O[C@H](c4ccc(OC)cc4)OC[C@H]3O[C@H]12 (stereo partly drawn) [Compound 16, ethyl (2R,4aR,5aS,6aR,7R,7aS)-7-hydroxy-2-(4-methoxyphenyl)hexahydro-4H-cyclopropa[5,6]pyrano[3,2-d][1,3]dioxine-6-carboxylate]
- MES 30 0.5 h (animals protected/tested) (MES-induced seizures; 0.5 h): 0/4
- MES 30 4 h (animals protected/tested) (MES-induced seizures; 4 h): 1/4
- responders at 30 mg/kg ([1]; 0.4 h, read-out: scMET 30 0.4 h (animals protected/tested)): 0%
- responders at 30 mg/kg ([1]; 0.5 h, read-out: scMET 30 0.5 h (animals protected/tested)): 0%
- responders at 100 mg/kg ([1]; 0.4 h, read-out: scMET 100 0.4 h (animals protected/tested)): 0%
- responders at 100 mg/kg ([1]; 0.5 h, read-out: scMET 100 0.5 h (animals protected/tested)): 0%
- responders at 300 mg/kg ([1]; 0.4 h, read-out: scMET 300 0.4 h (animals protected/tested)): 0%
- responders at 300 mg/kg ([1]; 0.5 h, read-out: scMET 300 0.5 h (animals protected/tested)): 0%
- scMET 300 0.4 h (animals protected/tested) [2]: 0/4
- TOX 30 4 h (animals toxic/tested) [3]: 0/4
- Ki ([4]; D1 dopamine receptor, [3H]SCH23390 0.3 nM, Cheng-Prusoff): 4.74 µM
- inhibition of the D1 dopamine receptor ([4]; radioligand competition binding): significant inhibition
- anticonvulsant activity (seizures): anticonvulsant activity
